Assay results: patent US20240335539A1, “MODULATION OF BCL-2 TO ENHANCE CHIMERIC ANTIGEN RECEPTOR CANCER IMMUNOTHERAPY EFFICACY” (The Trustees of the University of Pennsylvania, priority 2021, published 2024)
Where two headings read alike, the source gives them in different places.

Legend:
[1] = system: MINO; assay: Venetoclax-mediated killing, bioluminescence cytotoxicity assay, 48 hours; format: cell-based
Method: (§1) FIGS. 2A-2F illustrate the finding that venetoclax and CART19 as a single agent induces concentration- and dose-dependent tumor killing. Luciferase-expressing cancer cells (5×10^4 cells/well) were co-cultured with either various concentrations of venetoclax or different doses of CART19 for 48 hours and luminescence was used to quantify the tumor killing. After 48 hours, luciferin was added to the cells and luminescence was detected using a luminometer (Biotek Synergy H4). Tumor killing (%) was calculated using the formula: (sample−maximal tumor growth)/(lysis control−maximal tumor growth)×100. […] E:T=ratio of effector to target. EC50: Half-maximal effective concentration. CART19: anti-CD19 CAR T cell.
(§2) Cell lines (MINO, Z-138, MAVER, OCI-Ly18, SU-DHL-4, NALM6, MOLM-14 and KG-1) were engineered to express click beetle green, and cell survival was measured using bioluminescence quantification. D-luciferin potassium salt (Perkin-Elmer) was added to cell cultures (final concentration 15 μg/mL) and incubated at 37° C. for 10 minutes. Bioluminescence signal was detected using a BioTek Synergy H4 imager, and signal was analyzed using BioTek Gen5 software. Percent specific lysis was calculated using a control of target cells without effectors. Cytotoxicity assays were established as previously described (Singh, et al., Cancer Discovery 2020; 10(4):552-67) with the addition of vehicle or venetoclax.
(§3) CART19 cells were co-cultured with either vehicle (DMSO) or venetoclax and cytotoxicity was measured at 48 hours. […] This effect was further confirmed using primary NHL cells (MCL) (FIG. 1D). […] Furthermore, to confirm the importance of the BCL-2 pathway in resistance to CART killing, overexpression of BCL-2 was induced in B-cell lymphoma and leukemia cell lines (MINO, SU-DHL-4, and NALM-6) that lack genetic alterations of BCL-2. BCL-2 overexpression led to a significant reduction of tumor killing by CART cell in all models, in particular the venetoclax medium sensitive model (MINO) (FIGS. 4A-4C).

[2] = system: NALM6; assay: as above; format: cell-based; details: Homo sapiens, NALM-6, read-out: half-maximal inhibitory concentration (IC50)
Method: as §1, §2, §3

[3] = system: OCI-Ly18; assay: as above; format: cell-based; details: Homo sapiens, read-out: half-maximal inhibitory concentration (IC50)
Method: as §1, §2, §3

[4] = system: NALM6; assay: NALM6 xenograft model; format: in vivo; details: CART19 with or without venetoclax 100 mg/kg daily, oral gavage for five weeks
Method: Either venetoclax (100 mg/kg) or vehicle were administered to the mice via oral gavage daily. To monitor the survival of CART in vivo, mouse blood ([…]) was collected from submandibular vein of mouse on day 15 after CART infusion and measured the absolute number of human CD3+ T cells in mouse blood using flow cytometry. Tumor volume was monitored by measuring luminescen intensity in mouse by IVIS system. […] One-way ANOVA with post-hoc Tukey test was performed. […] All data represent mean±SD. *P<0.05. ns: not significant. UTD: untransduced T cell. CART19: anti-CD19 CAR T cell. CART19-BCL2(WT): BCL-2(WT) overexpressing anti-CD19 CAR T cell.
All data represent mean±SD.
To investigate this hypothesis, the expansion and persistence of CART19 cells in the peripheral blood of NSG mice treated with CART19 plus venetoclax or CART19 alone was analyzed using flow cytometry. […] To test whether prolonged exposure to venetoclax leads to CART cell toxicity, an in vitro venetoclax toxicity assay was performed using CART cells manufactured from 8 different T cell donors. […] In order to discern whether the reduced survival was due to increased apoptosis or reduction of proliferation, the caspase 3/7 activity in CART19 was assessed in the presence or absence of venetoclax. […]

[5] = system: CART19; assay: In vitro venetoclax CART cell toxicity assay; format: cell-based, human; details: for IC50: Homo sapiens
Method: (§4) CART cells were combined with target cancer cells at an E:T ratio of 0.25:1, and co-cultures were evaluated for absolute count of T cells and cancer cells by flow cytometry using CountBright absolute counting beads (ThermoFisher) every three days. Cultures were maintained at a concentration of 1×10^6 total cells/mL. To monitor their differentiation status, CART cells were harvested on day 0, 9, and 18. Next, CART cells were stained with anti-CCR7 and anti-CD45RA antibodies for flow cytometric analysis. CART cells were re-stimulated by PMA/Ionomycin on day 18 after initial stimulation in order to evaluate the anti-tumor activity of long-survived CART cells.
To investigate this hypothesis, the expansion and persistence of CART19 cells in the peripheral blood of NSG mice treated with CART19 plus venetoclax or CART19 alone was analyzed using flow cytometry. […] To test whether prolonged exposure to venetoclax leads to CART cell toxicity, an in vitro venetoclax toxicity assay was performed using CART cells manufactured from 8 different T cell donors. […] Of note, the level of toxicity to CART cells varied among the different T cell donors, likely due to different apoptotic priming statuses at baseline. […] In order to discern whether the reduced survival was due to increased apoptosis or reduction of proliferation, the caspase 3/7 activity in CART19 was assessed in the presence or absence of venetoclax. […] Overall, these studies indicate that the higher doses of venetoclax required to suppress neoplasms with venetoclax resistance can cause apoptosis in CART19 cells. However, the BCL-2 pathway is a critical node for cancer resistance to CART immunotherapy and venetoclax can be toxic to CART cells. Thus, a different approach to overcome the limitation of targeting BCL-2 combined with CART immunotherapy was needed.
(§5) Correct expression of the transgenes in target cells was confirmed by intracellular staining for CAR19 and BCL-2 using flow cytometry (FIG. 10B). […] Additionally, venetoclax CART cell toxicity assays were performed to evaluate whether the mutant BCL-2 could provide resistance to venetoclax.

[6] = system: CART19-BCL-2(WT); assay: In vitro venetoclax CART cell toxicity assay; format: cell-based; details: Homo sapiens; venetoclax on CART19-BCL-2(WT); long-term in vitro assay; n=3 donors; read-out: average IC50 value (CART cell survival)
Method: as §4, §5

[7] = patient treated with venetoclax (Jones et al. 2016); cited from earlier work
[8] = system: MINO; assay: MINO xenograft model; details: venetoclax 50 mg/Kg
Method: For the MINO model, CART cells (5×10^4) were infused 14 days after luciferase+MINO cells were implanted (i.v. injection). […] Either vehicle or venetoclax (50 mg/kg/daily) was administrated for 5 weeks via oral gavage. […] All data represent mean±SD.
CART cells (5×10^4) were infused 14 days after luciferase+MINO cell i.v. injection. […] All data represent mean±SD. One-way ANOVA with posthoc Tukey tests was performed for all comparisons.
Six- to 10-week-old NOD SCID γ chain −/− (NSG) mice were obtained from the Stem Cell & Xenograft Core at the University of Pennsylvania and maintained in pathogen-free conditions. […] For the systemic tumor model, 1×10^6 of either NALM6 or MINO were administrated to NSG mice by tail vein injection.

[9] = system: NALM6; assay: Targeted pro-apoptotic small molecule screening with CART19 against NALM6, killing by luminescence at 48 hours; details: drug 100 and 1000 nM with CART19
Method: Killing of NALM6 cells was quantified at 48 hours by luminescence. Drug screening of pro-apoptotic small molecules was performed with two concentrations (100 and 1000 nM). […] Two concentrations of 29 drugs were used (100 nM and 1000 nM). Killing of NALM6 cells was assessed at 48 hours by luminescence. […] UTD: untransduced T cells; CART19: anti-CD19 CAR T cell; MCL: mantle cell lymphoma; E:T=ratio of effector to target; IAP: Inhibition of apoptosis protein.
CART19 and NALM6 (luciferase+) cells were seeded at a ratio of 0.08E:1T (i.e., 600 CART: 7000 NALM6) per well in 25 μl of growth medium (RPMI1640+10% FBS+1% Pen-strep+1% glutamine) of 384-well Corning 3570 microplate using a Multidrop™ Combi Reagent Dispenser (Thermo Scientific). Following cell seeding, drugs (50 nL) were transferred to assay plates using a 50 nL slotted pin tool (V&P Scientific) and a JANUS Automated Workstation (Perkin Elmer). Compounds/drugs were added to a final concentration of 1 μM in 0.2% DMSO. Columns 1 and 23 were treated with 0.2% DMSO (negative control). […] Luminescence was measured on an EnVision Xcite Multilabel Plate Reader (PerkinElmer), using the ultrasensitive luminescence measurement technology.
In order to screen pro-apoptotic small molecules that can enhance CART cell killing, a targeted screening assay was performed. […] Tumor killing was measured by luminescence at 48 hours.

CC1(C)CCC(CN2CCN(c3ccc(C(=O)NS(=O)(=O)c4ccc(NCC5CCOCC5)c([N+](=O)[O-])c4)c(Oc4cnc5[nH]ccc5c4)c3)CC2)=C(c2ccc(Cl)cc2)C1 [venetoclax]
IC50 ([1]; Homo sapiens, MINO, 48 hours, read-out: half-maximal inhibitory concentration (IC50)): 68.2 nM | IC50 for MINO relative to OCI-Ly18 ([1]; MINO vs OCI-Ly18): 5 fold | IC50 [2]: 1300 nM | IC50 [3]: 18.5 nM | Mice showing tumor relapse [4]: 40% | Survival of CART19 cells ([5]; 5 days of co-culture, CART cells from 8 donors): significant reduction in the survival of CART19 cells | IC50 ([5]; healthy donor-derived CAR T cell, read-out: average value of the IC50 concentration): 600 nM | IC50 ([5]; venetoclax on CART19, long-term in vitro assay, n=3 donors, read-out: average IC50 value (CART cell survival)): 131 nM | Caspase 3/7 activation in CART cells ([5]; venetoclax present vs absent): significant caspase 3/7 activation in CART cells | IC50 [6]: 998 nM | physiological concentration in a patient [7]: around 2.3 M | Toxicity to CART cells in vivo [8]: toxic to CART19 | Enhancement of CART19 killing / CART cell cytotoxicity [9]: strong enhancement of CART19 killing
